Experimental data taken from patent US20110015226A1, “Treatment of Energy Utilization Disease” (SUMMIT CORPORATION PLC, priority 2008, published 2011).
Where “and” joins values, the source holds several entries; their conditions need not be identical. Identical values can stand only once.

What was measured:
Format in all cases: biochemical
[1] = biological target: T1, rabbit intestinal sucrase (Oryctolagus cuniculus, UniProt P07768); experiment: Rabbit disaccharidase inhibition assay: sucrase; conditions: NI: no inhibition at 0.8 mM
T1 construct: The small intestine was dissected out of a female wild rabbit; from tissue; host or cells: small-intestinal mucosa of a female wild rabbit
Protocol: (§1) Sucrose (8.3 mM), maltose (5 mM) and isomaltose (6.3 mM) substrates were made using 0.2 M Macllvaine (citrate-phosphate) buffer, pH 6.0. The glucose detection reagent was prepared according to the supplier's instructions (Megazyme Ltd). Linearity of the timecourse of the reaction between the glucose detection reagent and glucose was tested using a series of glucose dilutions.
(§2) The method for preparation of mammalian small intestine mucosal disaccharidases was based on Griffiths (1998), omitting ammonium sulphate fractionation steps. The small intestine was dissected out of a female wild rabbit, and opened longitudinally using a scalpel. The mucosal layer was scraped off using the edge of a clean microscope slide, and placed into 3 ml of dH2O. The mucosal layer suspension was centrifuged at around 1000 rpm for 30 seconds to sediment tissue debris. The supernatant ([…]) was removed, and centrifuged again at 3500 rcf for 1 minute to remove fine particulates from suspension. The supernatant was diluted to give 0.2-0.25 mg/ml protein and stored at −30° C.
(§3) Enzyme assays were carried out using 5-15 μl of enzyme preparation, 5 μl of test compound (or dH2O for controls) and 15-25 μl of substrate solution. Reactions were covered using a sheet of plate sealing film, and incubated at 37° C. for 60 minutes. Glucose (from disaccharide hydrolysis) was quantified by adding 200 μl of glucose detection reagent and incubating the reactions for a further twenty-five minutes. Absorbance was measured at 510 nm against control blanks.

[2] = biological target: T2, rabbit intestinal isomaltase (Oryctolagus cuniculus, UniProt P07768); experiment: Rabbit disaccharidase inhibition assay: isomaltase; conditions: NI: no inhibition at 0.8 mM
T2 construct: The small intestine was dissected out of a female wild rabbit; from tissue; host or cells: small-intestinal mucosa of a female wild rabbit
Protocol: as §1, §2, §3

[3] = biological target: rabbit intestinal maltase; experiment: Rabbit disaccharidase inhibition assay: maltase; conditions: NI: no inhibition at 0.8 mM
Protocol: as §1, §2, §3

α-D-glucosidase (Yeast) = biological target: T3, α-D-glucosidase (Yeast) (Saccharomyces cerevisiae, UniProt P53341); experiment: Glycosidase inhibition: α-D-glucosidase (Yeast); conditions: compounds tested at 0.8 mM
T3 construct: purchased Sigma
Source text: (§4) The results tabulated below were obtained using commercially available glycosidases and p-nitrophenyl-substrates using standard methods described for example by Watson et al (1997) Phytochemistry 46 255-259. All enzymes and substrates were bought from Sigma. Enzyme and substrate solutions were made using sodium phosphate buffers at the pH optima values. The enzymes used were α-D-glucosidase Saccharomyces cerevisiae, Bacillus stearothermophilus, Oryzae sativa), β-D-glucosidase (Almond), α-D-mannosidase (Jack bean), α-D-galactosidase (Green coffee beans), β-D-galactosidase (Bovine liver), α-L-fucosidase (Bovine kidney), N-acetyl-β-D-glucosaminidase (Bovine kidney, Jack bean, Aspergillus oryzae), Naringinase (Penicillium decumbens) and amyloglucosidase (Aspergillus niger). All enzymes were used with the appropriate p-nitrophenyl substrates (5 mM). Amyloglucosidase activity was measured using amylopectin (0.1%) (Merck) mixed with sodium phosphate buffer, pH 4.5 in a glass bottle, and healed in a boiling water bath for 20 minutes to dissolve with released glucose measured using ‘Trinder’ glucose detection solution (Sigma).
(§5) All enzymes and para-nitrophenyl substrates were purchased from Sigma, with the exception of beta-mannosidase which came from Megazyme. Enzymes were assayed at 27° C. in 0.1M citric acid/0.2M disodium hydrogen phosphate buffers at the optimum pH for the enzyme. The incubation mixture consisted of 10 μl enzyme solution, 10 μl of 1 mg/ml aqueous solution of extract and 50 μl of the appropriate 5 mM para-nitrophenyl substrate made up in buffer at the optimum pH for the enzyme. The reactions were stopped by addition of 70 μl 0.4M glycine (pH 10.4) during the exponential phase of the reaction, which had been determined at the beginning using uninhibited assays in which water replaced inhibitor. Final absorbances were read at 405 nm using a Versamax microplate reader (Molecular Devices). Assays were carried out in triplicate, and the values given are means of the three replicates per assay. (See Watson, A. A., Nash, R. J., Wormald, M. R., Harvey, D. J., Dealler, S., Lees, E., Asano, N., Kizu, H., Kato, A., Griffiths, R. C., Cairns, A. J. and Fleet, G. W. J. (1997). Glycosidase-inhibiting pyrrolidine alkaloids from Hyacinthoides non-scripta. Phytochemistry 46 (2): 255-259.)

[4] = biological target: T4, α-D-galactosidase Green coffee bean (Coffea arabica, UniProt Q42656); experiment: Glycosidase inhibition: α-D-galactosidase Green coffee bean; conditions: compounds tested at 0.8 mM
T4 construct: α-D-galactosidase (Green coffee beans); purchased Sigma; host or cells: green coffee beans
Source text: as §4, §5

[5] = biological target: T5, α-D-mannosidase Jack bean (Canavalia ensiformis, UniProt C0HJB3); experiment: Glycosidase inhibition: α-D-mannosidase Jack bean; conditions: compounds tested at 0.8 mM
T5 construct: α-D-mannosidase (Jack bean); purchased Sigma
T5 sequence (C0HJB3 1-981): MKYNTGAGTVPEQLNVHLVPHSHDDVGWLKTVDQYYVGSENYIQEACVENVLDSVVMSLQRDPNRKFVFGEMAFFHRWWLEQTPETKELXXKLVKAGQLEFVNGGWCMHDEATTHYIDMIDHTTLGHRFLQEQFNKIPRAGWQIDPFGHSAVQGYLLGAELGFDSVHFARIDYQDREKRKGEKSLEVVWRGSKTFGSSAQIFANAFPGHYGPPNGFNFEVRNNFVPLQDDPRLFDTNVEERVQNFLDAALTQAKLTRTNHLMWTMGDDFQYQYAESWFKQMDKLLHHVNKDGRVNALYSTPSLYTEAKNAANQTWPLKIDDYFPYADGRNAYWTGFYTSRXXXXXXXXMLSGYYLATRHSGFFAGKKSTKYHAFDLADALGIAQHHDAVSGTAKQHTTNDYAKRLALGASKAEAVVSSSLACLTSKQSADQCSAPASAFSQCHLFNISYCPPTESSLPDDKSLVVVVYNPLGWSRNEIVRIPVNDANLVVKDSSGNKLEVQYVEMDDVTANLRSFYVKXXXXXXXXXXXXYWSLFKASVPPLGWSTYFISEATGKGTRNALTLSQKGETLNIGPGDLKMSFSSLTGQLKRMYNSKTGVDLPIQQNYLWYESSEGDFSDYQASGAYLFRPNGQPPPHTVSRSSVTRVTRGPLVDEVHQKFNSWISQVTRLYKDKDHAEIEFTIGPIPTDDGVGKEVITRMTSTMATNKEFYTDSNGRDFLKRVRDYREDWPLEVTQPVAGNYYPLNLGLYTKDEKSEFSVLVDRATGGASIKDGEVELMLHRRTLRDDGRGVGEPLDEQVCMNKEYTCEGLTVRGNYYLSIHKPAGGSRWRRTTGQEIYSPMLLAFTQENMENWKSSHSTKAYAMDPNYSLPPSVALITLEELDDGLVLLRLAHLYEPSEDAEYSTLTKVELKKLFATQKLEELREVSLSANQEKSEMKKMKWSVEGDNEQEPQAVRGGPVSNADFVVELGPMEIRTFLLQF

[6] = system: Naringinase Penicillium decumbens; experiment: Glycosidase inhibition: Naringinase Penicillium decumbens; conditions: compounds tested at 0.8 mM
Source text: as §4
as §5, with “(See Watson, A. A., Nash, R. J., Wormald, M. R., Harvey, D. J., Dealler, S., Lees, E., Asano, N., Kizu, H., Kato, A., Griffiths, R. C., Cairns, A. J. and Fleet, G. W. J. (1997). Glycosidase-inhibiting pyrrolidine alkaloids from Hyacinthoides non-scripta. Phytochemistry 46 (2): 255-259.)” left out

[7] = system: rabbit digestive disaccharidases; experiment: Rabbit digestive disaccharidases (summary statement); conditions: at 0.8 mM
Protocol: as §1, §2, §3

T1 sequence (P07768 whole entry): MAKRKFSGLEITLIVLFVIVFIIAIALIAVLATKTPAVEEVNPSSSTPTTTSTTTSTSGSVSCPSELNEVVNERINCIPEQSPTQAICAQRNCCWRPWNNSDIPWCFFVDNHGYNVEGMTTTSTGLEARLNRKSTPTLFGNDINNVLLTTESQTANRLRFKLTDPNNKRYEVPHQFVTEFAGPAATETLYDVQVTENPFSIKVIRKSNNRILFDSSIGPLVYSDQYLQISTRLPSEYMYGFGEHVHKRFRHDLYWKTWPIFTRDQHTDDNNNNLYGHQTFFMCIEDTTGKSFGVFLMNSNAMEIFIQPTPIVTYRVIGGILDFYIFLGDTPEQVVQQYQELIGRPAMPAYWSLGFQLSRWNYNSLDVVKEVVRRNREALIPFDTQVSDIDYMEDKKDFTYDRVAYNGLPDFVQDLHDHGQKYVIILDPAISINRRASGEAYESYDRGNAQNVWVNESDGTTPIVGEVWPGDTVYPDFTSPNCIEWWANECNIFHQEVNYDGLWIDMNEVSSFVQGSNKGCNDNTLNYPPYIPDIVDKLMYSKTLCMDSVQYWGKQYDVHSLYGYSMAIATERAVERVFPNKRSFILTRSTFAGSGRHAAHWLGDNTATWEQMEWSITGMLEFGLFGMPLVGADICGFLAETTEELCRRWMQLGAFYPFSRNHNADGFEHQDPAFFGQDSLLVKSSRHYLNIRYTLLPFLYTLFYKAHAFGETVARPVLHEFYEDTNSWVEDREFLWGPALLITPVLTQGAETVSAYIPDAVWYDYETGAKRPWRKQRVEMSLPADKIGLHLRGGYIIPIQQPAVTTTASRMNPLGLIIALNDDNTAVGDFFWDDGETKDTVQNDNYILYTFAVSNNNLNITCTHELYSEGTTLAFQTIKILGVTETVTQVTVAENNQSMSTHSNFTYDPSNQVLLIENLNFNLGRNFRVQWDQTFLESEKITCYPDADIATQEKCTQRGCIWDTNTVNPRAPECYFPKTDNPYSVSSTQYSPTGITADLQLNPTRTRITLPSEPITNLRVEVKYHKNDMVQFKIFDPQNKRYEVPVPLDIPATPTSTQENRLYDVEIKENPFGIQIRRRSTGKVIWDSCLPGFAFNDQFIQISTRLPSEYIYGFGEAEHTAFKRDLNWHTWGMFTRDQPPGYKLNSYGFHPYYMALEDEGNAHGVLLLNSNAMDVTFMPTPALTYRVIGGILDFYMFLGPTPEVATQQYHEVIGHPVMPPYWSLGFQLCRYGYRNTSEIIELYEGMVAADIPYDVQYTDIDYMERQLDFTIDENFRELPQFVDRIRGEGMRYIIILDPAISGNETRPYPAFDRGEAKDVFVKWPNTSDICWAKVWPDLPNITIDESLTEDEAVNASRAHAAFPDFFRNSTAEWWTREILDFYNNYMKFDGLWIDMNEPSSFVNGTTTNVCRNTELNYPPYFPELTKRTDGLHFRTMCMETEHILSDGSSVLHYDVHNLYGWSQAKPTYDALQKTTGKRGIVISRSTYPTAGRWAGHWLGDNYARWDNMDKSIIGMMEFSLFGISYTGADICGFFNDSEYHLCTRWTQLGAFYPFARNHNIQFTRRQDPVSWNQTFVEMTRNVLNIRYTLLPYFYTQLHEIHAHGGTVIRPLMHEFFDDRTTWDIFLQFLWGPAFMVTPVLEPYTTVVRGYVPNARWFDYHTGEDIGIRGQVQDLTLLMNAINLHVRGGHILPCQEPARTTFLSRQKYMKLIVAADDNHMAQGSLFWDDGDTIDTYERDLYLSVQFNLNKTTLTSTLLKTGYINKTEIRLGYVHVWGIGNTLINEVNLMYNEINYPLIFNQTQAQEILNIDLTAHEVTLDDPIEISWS
T2 sequence (P07768 whole entry): as above
T3 sequence (P53341 whole entry): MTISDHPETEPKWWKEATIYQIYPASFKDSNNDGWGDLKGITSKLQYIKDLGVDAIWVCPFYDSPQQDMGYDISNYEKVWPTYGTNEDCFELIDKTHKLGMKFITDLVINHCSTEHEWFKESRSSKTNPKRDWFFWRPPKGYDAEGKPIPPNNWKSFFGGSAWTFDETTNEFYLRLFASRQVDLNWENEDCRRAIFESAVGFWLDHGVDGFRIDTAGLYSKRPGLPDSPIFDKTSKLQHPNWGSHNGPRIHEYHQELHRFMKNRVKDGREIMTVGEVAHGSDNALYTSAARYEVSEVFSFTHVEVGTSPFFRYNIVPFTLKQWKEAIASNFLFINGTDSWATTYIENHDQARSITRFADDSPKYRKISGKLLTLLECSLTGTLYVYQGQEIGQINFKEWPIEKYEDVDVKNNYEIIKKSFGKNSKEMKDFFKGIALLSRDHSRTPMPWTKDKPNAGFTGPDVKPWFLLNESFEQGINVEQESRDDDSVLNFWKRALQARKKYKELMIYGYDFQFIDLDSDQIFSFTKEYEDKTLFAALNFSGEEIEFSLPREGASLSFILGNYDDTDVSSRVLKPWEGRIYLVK
T4 sequence (Q42656 16-378): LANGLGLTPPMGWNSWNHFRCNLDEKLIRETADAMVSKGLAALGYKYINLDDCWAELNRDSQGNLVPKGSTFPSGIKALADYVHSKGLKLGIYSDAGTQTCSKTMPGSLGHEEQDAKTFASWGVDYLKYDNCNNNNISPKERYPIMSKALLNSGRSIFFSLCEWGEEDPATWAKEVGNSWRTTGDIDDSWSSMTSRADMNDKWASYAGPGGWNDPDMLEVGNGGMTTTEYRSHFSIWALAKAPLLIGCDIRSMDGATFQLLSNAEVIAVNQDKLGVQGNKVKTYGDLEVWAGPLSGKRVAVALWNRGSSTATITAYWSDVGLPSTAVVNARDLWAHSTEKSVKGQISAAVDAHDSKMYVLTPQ

Row | SMILES | IC50 [1] | IC50 [2] | IC50 [3] | inhibition at 800 µM (α-D-glucosidase (Yeast)) | inhibition at 800 µM [4] | % inhibition, α-D-mannosidase Jack bean [5] | inhibition at 800 µM [5] | % inhibition, Naringinase Penicillium decumbens [6] | sucrase IC50 (uM) [1] | maltase IC50 (uM) [3] | inhibition of the disaccharidases [7]
1 | OC[C@H]1NC[C@H](O)[C@@H](O)[C@@H]1O [DNJ, 1-deoxynojirimycin, reference compound] | 0.09 µM | 0.02 µM | 0.18 µM | 36% | < 10% | 27% | 26% | 20% and 21% |  |  | 
2 | O=C(O)CCN1C[C@H](O)[C@@H](O)[C@H](O)[C@H]1CO [Compound T1] | 6.1 µM |  | 19 µM | < 50% | < 50% |  | < 50% |  | very weak inhibition | very weak inhibition | 
3 | O=C(O)[C@H]1NC[C@H](O)[C@@H](O)[C@@H]1O [Compound G2, 2S,3R,4R,5S-trihydroxypiperidine-2-carboxylic acid] | > 800 µM | > 800 µM | > 800 µM | < 10% | < 10% |  | 29% | NI (NI = no inhibition) |  |  | no inhibition
4 | CCCCOC(=O)[C@@H]1[C@@H](O)[C@H](O)[C@@H](O)CN1CCCC [Compound T2, (2S,3R,4R,5S)-Butyl 1-butyl-3,4,5-trihydroxypiperidine-2-carboxylate] | > 800 µM | > 800 µM | > 800 µM | < 50% | < 50% |  | < 50% |  |  |  | no inhibition
5 | O=C(O)CN1[C@H](CO)[C@@H](O)[C@H](O)[C@H]1CO [Compound S2, 2-((2R,3R,4R,5R)-3,4-Dihydroxy-2,5-bis(hydroxymethyl)pyrrolidin-1-yl)acetic acid] | > 800 µM |  | > 800 µM | < 50% | < 50% |  | < 50% |  |  |  | no inhibition
